# Reference: US11959083B2, “Immunosuppression-reverting oligonucleotides inhibiting the expression of CD39” (Secarna Pharmaceuticals GmbH & Co. KG, priority 2016, dated 2024)
# l = locked nucleic acid (LNA); d = 2'-deoxy (DNA)
# Assays:
# mCD39 mRNA = mCD39 mRNA knockdown efficacy screen in A20 cells (single dose, gymnotic delivery, QuantiGene Singleplex); assay type: cell-based, mouse; details: 10 μM, three days, normalized to HPRT1
# Description: FIG. 14-1 and 14-2 show mCD39 mRNA knockdown efficacy of mCD39 antisense oligonucleotides in the murine cancer cell line A20 (mouse B cell lymphoma). A20 cells were treated with a single dose of 10 μM of the respective antisense oligonucleotide. As negative control, cells were treated with neg1, an antisense oligonucleotide having the sequence CGTTTAGGCTATGTACTT (SEQ ID NO:99). Residual mCD39 mRNA expression relative to untreated cells is depicted. Expression values were normalized to expression of the housekeeping gene HPRT1.
# In order to analyze the efficacy of mCD39 antisense oligonucleotides with regard to the knockdown of mCD39 mRNA expression in a cancer cell line, A20 (mouse B cell lymphoma, ATCC) cells were treated with a single dose (concentration: 10 μM without addition of any transfection reagent; this process is called gymnotic delivery) of the respective antisense oligonucleotide as indicated in FIG. 14. As control, cells were treated with neg1, an antisense oligonucleotide having the sequence CGTTTAGGCTATGTACTT (SEQ ID NO:99). mCD39 and HPRT1 mRNA expression was analyzed after three days using the QuantiGene Singleplex assay (Affymetrix) and mCD39 expression values were normalized to HPRT1 expression values.
# hCD39 mRNA [1] = assay: IC50 determination / concentration-dependent hCD39 mRNA knockdown in HDLM-2 cells; assay type: cell-based, human; details: for mRNA inhibition: HDLM-2, 3 days; for IC50: HDLM-2 cells, hCD39 mRNA, 3 days
# Description: HDLM-2 cells were treated for 3 days with the indicated concentration of the respective antisense oligonucleotide. Residual hCD39 expression is depicted compared to untreated control cells. hCD39 mRNA expression values were normalized to expression of the housekeeping gene HPRT1.
# The antisense oligonucleotide A04040H (SEQ ID No. 3) that had shown potent activity in the first and second screening round was used as reference. HDLM-2 cells treated for 3 days with the indicated concentrations of the respective antisense oligonucleotide. hCD39 mRNA expression values were normalized to expression of the housekeeping gene HPRT1. Residual hCD39 mRNA expression relative to untreated cells (set as 100) is depicted. Depicted is the mean of triplicate wells+/−SD.
# In a second experiment the concentration-dependency of effects and the IC50 values of hCD39 antisense oligonucleotides A04010H (SEQ ID No.14), A04016H (SEQ ID No.20), A04017H (SEQ ID No.21), A04020H (SEQ ID No. 24) and A04026H (SEQ ID No.30) were tested. […] HDLM-2 cells were treated with titrated amounts of the respective antisense oligonucleotide (concentrations: 10 μM, 3.3 μM, 1.1 μM, 370 nM, 120 nM, 41 nM, 14 nM, 4.5 nM). hCD39 mRNA expression was analyzed after three days of treatment. FIG. 5 and Table 9 depicts the concentration-dependent reduction of hCD39 mRNA expression by the selected hCD39 antisense oligonucleotides.
# The hCD39 antisense oligonucleotides A04051H (SEQ ID No.88), A04052H (SEQ ID No.89), A04053H ([…]), A04056H (SEQ ID No.92), A04059H (SEQ ID No.94), A04060H (SEQ ID No.95), and A04061H (SEQ ID No.96) had shown potent single-dose activity in both HDLM-2 and A-172 cells. […] The antisense oligonucleotide A04040H that had shown potent activity in the first screening round was used as reference. hCD39 mRNA expression was analyzed after 3 days of treatment. FIG. 7 depicts the concentration-dependent reduction of hCD39 expression by hCD39 antisense oligonucleotides.
# hCD39 mRNA [2] = assay: hCD39 mRNA knockdown efficacy screen in A-172 cells (single dose, gymnotic delivery, QuantiGene Singleplex); assay type: cell-based, human; details: 10 μM, 3 days; for Residual hCD39 mRNA expression relative to untreated cells (set as 1): third screening round; for Mean hCD39 mRNA expression (relative to untreated cells set as 1): first screening round; for Mean hCD39 mRNA expression (relative to untreated cells set as 1) / Relative hCD39 mRNA expression (compared to non-treated cells): normalized to HPRT1; for Relative hCD39 mRNA expression (compared to non-treated cells): second screening round
# Procedure, shortened: (§1)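 Antisense oligonucleotides given once at 10 μM without transfection reagent (gymnotic) to HDLM-2 or A-172 cells for 3 days. hCD39 mRNA measured by QuantiGene Singleplex, normalized to HPRT1 and expressed relative to untreated cells; triplicate means.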
# hCD39 mRNA [3] = assay: hCD39 mRNA knockdown efficacy screen in HDLM-2 cells (single dose, gymnotic delivery, QuantiGene Singleplex); assay type: cell-based, human; set-up: key to Relative hCD39 mRNA expression (compared to non-treated cells): *: values are below detection limit; details: 10 μM, 3 days; for Residual hCD39 mRNA expression relative to untreated cells (set as 1): third screening round; for Mean hCD39 mRNA expression normalized to HPRT1 relative to untreated control = 1: first screening round; for Relative hCD39 mRNA expression (compared to non-treated cells): second screening round, normalized to HPRT1
# Procedure, shortened: as §1
# [4] = third screening round (Table 12)
# [5] = first screening round (Table 8)
substance,measurement,setting,value
"+C*+A*+C*A*T*T*A*G*C*T*G*C*+A*+C*+G (antisense CACATTAGCTGCACG; sugars from the 5' end l3 d9 l3, all phosphorothioate, methylation of C not given here) [A04007MR]",Relative mCD39 mRNA expression (compared to non-treated cells),mCD39 mRNA,0.07
"+C*+A*+C*T*G*T*T*C*G*T*A*G*T*+C*+T*+C (antisense CACTGTTCGTAGTCTC; sugars from the 5' end l3 d10 l3, all phosphorothioate, methylation of C not given here) [A04014MR]",Relative mCD39 mRNA expression (compared to non-treated cells),mCD39 mRNA,0.20
"+T*+A*+C*G*T*T*C*A*C*T*A*C*C*T*+T*+C*+T (antisense TACGTTCACTACCTTCT; sugars from the 5' end l3 d11 l3, all phosphorothioate, methylation of C not given here) [A04052H]",mRNA inhibition,"hCD39 mRNA [1]; 0.45 nM, Table 12",24.52%
same,mRNA inhibition,"hCD39 mRNA [1]; 1.3 nM, Table 12",25.80%
same,mRNA inhibition,"hCD39 mRNA [1]; 4 nM, Table 12",9.03%
same,mRNA inhibition,"hCD39 mRNA [1]; 12 nM, Table 12",31.25%
same,mRNA inhibition,"hCD39 mRNA [1]; 40 nM, Table 12",49.21%
same,mRNA inhibition,"hCD39 mRNA [1]; 110 nM, Table 12",75.30%
same,mRNA inhibition,"hCD39 mRNA [1]; 330 nM, Table 12",88.35%
same,mRNA inhibition,"hCD39 mRNA [1]; 1000 nM, Table 12",94.72%
same,IC50,hCD39 mRNA [1]; [4],54 nM
same,Residual hCD39 mRNA expression relative to untreated cells (set as 1),hCD39 mRNA [2],0.25
same,Residual hCD39 mRNA expression relative to untreated cells (set as 1),hCD39 mRNA [3],0.00
"+T*+A*+C*G*T*T*C*A*C*T*A*C*C*T*+T*C*+T (antisense TACGTTCACTACCTTCT; sugars from the 5' end l3 d11 l1 d1 l1, all phosphorothioate, methylation of C not given here) [A04053H]",mRNA inhibition,"hCD39 mRNA [1]; 0.45 nM, Table 12",2.07%
same,mRNA inhibition,"hCD39 mRNA [1]; 1.3 nM, Table 12",17.51%
same,mRNA inhibition,"hCD39 mRNA [1]; 4 nM, Table 12",9.81%
same,mRNA inhibition,"hCD39 mRNA [1]; 12 nM, Table 12",26.67%
same,mRNA inhibition,"hCD39 mRNA [1]; 40 nM, Table 12",37.75%
same,mRNA inhibition,"hCD39 mRNA [1]; 110 nM, Table 12",66.64%
same,mRNA inhibition,"hCD39 mRNA [1]; 330 nM, Table 12",85.19%
same,mRNA inhibition,"hCD39 mRNA [1]; 1000 nM, Table 12",92.69%
same,IC50,hCD39 mRNA [1]; [4],67.6 nM
same,Residual hCD39 mRNA expression relative to untreated cells (set as 1),hCD39 mRNA [2],0.31
same,Residual hCD39 mRNA expression relative to untreated cells (set as 1),hCD39 mRNA [3],0.01
"+T*+A*+T*G*G*T*A*C*A*G*T*+T*G*+G*+T (antisense TATGGTACAGTTGGT; sugars from the 5' end l3 d8 l1 d1 l2, all phosphorothioate, methylation of C not given here) [A04020H]",mRNA inhibition,"hCD39 mRNA [1]; 0.0045 μM, Table 9",23.58%
same,mRNA inhibition,"hCD39 mRNA [1]; 0.013 μM, Table 9",68.27%
same,mRNA inhibition,"hCD39 mRNA [1]; 0.04 μM, Table 9",94.26%
same,mRNA inhibition,"hCD39 mRNA [1]; 0.12 μM, Table 9",98.89%
same,mRNA inhibition,"hCD39 mRNA [1]; 0.4 μM, Table 9",99.42%
same,mRNA inhibition,"hCD39 mRNA [1]; 1.1 μM, Table 9",99.61%
same,mRNA inhibition,"hCD39 mRNA [1]; 3.3 μM, Table 9",99.55%
same,mRNA inhibition,"hCD39 mRNA [1]; 10 μM, Table 9",99.41%
same,IC50,hCD39 mRNA [1]; second screening round (Table 9),10.1 nM
same,Mean hCD39 mRNA expression (relative to untreated cells set as 1),hCD39 mRNA [2],0.03
same,Relative hCD39 mRNA expression (compared to non-treated cells),hCD39 mRNA [2],0.04
same,Mean hCD39 mRNA expression normalized to HPRT1 relative to untreated control = 1,hCD39 mRNA [3],0.08
same,Relative hCD39 mRNA expression (compared to non-treated cells),hCD39 mRNA [3],0.08
"+T*+G*+C*C*A*G*A*G*T*G*C*C*T*G*+A*+T*+C (antisense TGCCAGAGTGCCTGATC; sugars from the 5' end l3 d11 l3, all phosphorothioate, methylation of C not given here) [A04042H]",mRNA inhibition,"hCD39 mRNA [1]; 0.0045 μM, Table 8",−20.02%
same,mRNA inhibition,"hCD39 mRNA [1]; 0.013 μM, Table 8",−2.65%
same,mRNA inhibition,"hCD39 mRNA [1]; 0.04 μM, Table 8",22.51%
same,mRNA inhibition,"hCD39 mRNA [1]; 0.12 μM, Table 8",32.44%
same,mRNA inhibition,"hCD39 mRNA [1]; 0.4 μM, Table 8",58.07%
same,mRNA inhibition,"hCD39 mRNA [1]; 1.1 μM, Table 8",76.38%
same,mRNA inhibition,"hCD39 mRNA [1]; 3.3 μM, Table 8",87.12%
same,mRNA inhibition,"hCD39 mRNA [1]; 10 μM, Table 8",95.87%
same,IC50,hCD39 mRNA [1]; [5],60.9 nM
same,Mean hCD39 mRNA expression (relative to untreated cells set as 1),hCD39 mRNA [2],0.37
same,Relative hCD39 mRNA expression (compared to non-treated cells),hCD39 mRNA [2],0.19
same,Residual hCD39 mRNA expression relative to untreated cells (set as 1),hCD39 mRNA [2],0.00
same,Mean hCD39 mRNA expression normalized to HPRT1 relative to untreated control = 1,hCD39 mRNA [3],0.10
same,Relative hCD39 mRNA expression (compared to non-treated cells),hCD39 mRNA [3],*
same,Residual hCD39 mRNA expression relative to untreated cells (set as 1),hCD39 mRNA [3],0.09
"+T*+T*+A*C*G*T*T*C*A*C*T*A*C*C*+T*+T*+C (antisense TTACGTTCACTACCTTC; sugars from the 5' end l3 d11 l3, all phosphorothioate, methylation of C not given here) [A04044H]",mRNA inhibition,"hCD39 mRNA [1]; 0.0045 μM, Table 8",12.17%
same,mRNA inhibition,"hCD39 mRNA [1]; 0.013 μM, Table 8",26.25%
same,mRNA inhibition,"hCD39 mRNA [1]; 0.04 μM, Table 8",45.88%
same,mRNA inhibition,"hCD39 mRNA [1]; 0.12 μM, Table 8",68.28%
same,mRNA inhibition,"hCD39 mRNA [1]; 0.4 μM, Table 8",82.63%
same,mRNA inhibition,"hCD39 mRNA [1]; 1.1 μM, Table 8",91.19%
same,mRNA inhibition,"hCD39 mRNA [1]; 3.3 μM, Table 8",96.20%
same,mRNA inhibition,"hCD39 mRNA [1]; 10 μM, Table 8",98.71%
same,IC50,hCD39 mRNA [1]; [5],46.3 nM
same,Mean hCD39 mRNA expression (relative to untreated cells set as 1),hCD39 mRNA [2],0.07
same,Relative hCD39 mRNA expression (compared to non-treated cells),hCD39 mRNA [2],0.04
same,Mean hCD39 mRNA expression normalized to HPRT1 relative to untreated control = 1,hCD39 mRNA [3],0.05
same,Relative hCD39 mRNA expression (compared to non-treated cells),hCD39 mRNA [3],*
